The subject of this series is rodent lifetime carcinogenesis bioassay, tumor incidence TD50. The series is described as follows: carcinogenic potency in animals, long-term in vivo studies, CPDB compilation (AID 1745844).
Where [1] appears, read: rat, strain Fischer 344, males, in drinking water, site: liver, lesion: hemangiosarcoma, dosed 30 weeks, study length 55 weeks.
[2] abbreviates: rat, strain Fischer 344, males, in drinking water, site: liver, lesion: hepatocellular carcinoma, dosed 30 weeks, study length 55 weeks.
Setting [3] is: rat, strain Fischer 344, males, in drinking water, site: liver, lesion: neurosarcoma, dosed 30 weeks, study length 55 weeks.
Setting [4] is: rat, strain Fischer 344, males, in drinking water, site: liver, lesion: several types, types named in the paper, dosed 30 weeks, study length 55 weeks.

The TD50 is the 50% point of the dose-response relation for the toxic effect studied.

Calls of active or inactive are those of the source. The rule behind the calls is not given here.

In the case of `CCBr`, the TD50 by setting is: (mouse, strain B6C3F1, females, inhaled, site: any site (literature study), lesion: several types, types named in the paper, dosed 103 weeks, study length 105 weeks) 571 mg/kg/day; (mouse, strain B6C3F1, females, inhaled, site: lung, lesion: alveolar/bronchiolar adenoma + alveolar/bronchiolar carcinoma, dosed 103 weeks, study length 105 weeks) 5810 mg/kg/day; (mouse, strain B6C3F1, females, inhaled, site: uterus, lesion: adenocarcinoma, NOS + adenoma, NOS + squamous-cell carcinoma, dosed 103 weeks, study length 105 weeks) 535 mg/kg/day; (mouse, strain B6C3F1, females, inhaled, site: uterus, lesion: adenocarcinoma, NOS + adenoma, NOS, dosed 103 weeks, study length 105 weeks) 596 mg/kg/day; (mouse, strain B6C3F1, females, inhaled, site: uterus, lesion: adenocarcinoma, NOS + squamous-cell carcinoma, dosed 103 weeks, study length 105 weeks) 681 mg/kg/day; (mouse, strain B6C3F1, females, inhaled, site: uterus, lesion: adenocarcinoma, NOS, dosed 103 weeks, study length 105 weeks) 822 mg/kg/day. Moreover, the TD50 (mouse, strain B6C3F1, females, inhaled, site: uterus, lesion: adenoma, NOS, dosed 103 weeks, study length 105 weeks) is 2610 mg/kg/day; the TD50 (mouse, strain B6C3F1, females, inhaled, site: uterus, lesion: squamous-cell carcinoma, dosed 103 weeks, study length 105 weeks) is 4440 mg/kg/day; the TD50 (mouse, strain B6C3F1, males, inhaled, site: any site (literature study), lesion: several types, types named in the paper, dosed 104 weeks, study length 105 weeks) amounted to 1630 mg/kg/day; the TD50 (mouse, strain B6C3F1, males, inhaled, site: liver, lesion: hepatocellular adenoma + hepatocellular carcinoma + neoplastic nodule, dosed 104 weeks, study length 105 weeks) stood at 3670 mg/kg/day; the TD50 (mouse, strain B6C3F1, males, inhaled, site: lung, lesion: alveolar/bronchiolar adenoma + alveolar/bronchiolar carcinoma, dosed 104 weeks, study length 105 weeks) turned out to be 1100 mg/kg/day; the TD50 (mouse, strain B6C3F1, males, inhaled, site: lung, lesion: alveolar/bronchiolar carcinoma, dosed 104 weeks, study length 105 weeks) turned out to be 2390 mg/kg/day. Also, the TD50 reads like this: (rat, strain Fischer 344, females, inhaled, site: brain, lesion: glioma, NOS, dosed 104 weeks, study length 106 weeks) 1020 mg/kg/day; (rat, strain Fischer 344, females, inhaled, site: liver, lesion: hepatocellular adenoma + hepatocellular carcinoma + neoplastic nodule, dosed 104 weeks, study length 106 weeks) 670 mg/kg/day; (rat, strain Fischer 344, females, inhaled, site: lung, lesion: alveolar/bronchiolar adenoma, dosed 104 weeks, study length 106 weeks) 1280 mg/kg/day; (rat, strain Fischer 344, males, inhaled, site: adrenal medulla + brain + lung, lesion: pheochromocytoma + pheochromocytoma, malignant + astrocytoma + granulosa-cell tumor, NOS + glioma, NOS + oligodendroglioma + alveola, dosed 104 weeks, study length 106 weeks) 151 mg/kg/day; (rat, strain Fischer 344, males, inhaled, site: adrenal medulla, lesion: pheochromocytoma + pheochromocytoma, malignant, dosed 104 weeks, study length 106 weeks) 149 mg/kg/day; (rat, strain Fischer 344, males, inhaled, site: brain, lesion: granulosa-cell tumor, NOS, dosed 104 weeks, study length 106 weeks) 80700 mg/kg/day. Also, the TD50 by setting is: (rat, strain Fischer 344, males, inhaled, site: liver, lesion: hepatocellular adenoma + hepatocellular carcinoma + neoplastic nodule, dosed 104 weeks, study length 106 weeks) 2280 mg/kg/day; (rat, strain Fischer 344, males, inhaled, site: liver, lesion: neoplastic nodule, dosed 104 weeks, study length 106 weeks) 1140 mg/kg/day; (rat, strain Fischer 344, males, inhaled, site: lung, lesion: alveolar/bronchiolar adenoma + alveolar/bronchiolar carcinoma, dosed 104 weeks, study length 106 weeks) 582 mg/kg/day. Moreover, under “rat, strain Fischer 344, males, inhaled, site: brain, lesion: astrocytoma + glioma, NOS + oligodendroglioma, dosed 104 weeks, study length 106 weeks”, the carcinogen call was “p”.

For the molecule `CN(Cc1cnc2nc(N)nc(N)c2n1)c1ccc(C(=O)N[C@@H](CCC(=O)O)C(=O)O)cc1`, the carcinogen call reads like this: (hamster, strain Syrian Golden, females, in feed, site: any site (literature study), lesion: several types, types named in the paper, dosed 101 weeks, study length 105 weeks) “negative (inactive)”; (hamster, strain Syrian Golden, males, in feed, site: any site (literature study), lesion: several types, types named in the paper, dosed 108 weeks, study length 115 weeks) “negative (inactive)”; (hamster, strain Syrian Golden, males, in feed, site: liver, lesion: one or several types, types not named, dosed 108 weeks, study length 115 weeks) “negative (inactive)”; (mouse, strain Swiss, females, in feed, site: lung, lesion: several types, types named in the paper, dosed 120 weeks, study length 120 weeks) “negative (inactive)”; (mouse, strain Swiss, males, in feed, site: any site (literature study), lesion: several types, types named in the paper, dosed 118 weeks, study length 120 weeks) “negative (inactive)”; (mouse, strain Swiss, males, in feed, site: liver, lesion: hemangioma, dosed 118 weeks, study length 120 weeks) “negative (inactive)”. Moreover, the carcinogen call (mouse, strain Swiss, males, in feed, site: lung, lesion: several types, types named in the paper, dosed 118 weeks, study length 120 weeks) was “negative (inactive)”; the carcinogen call (rat, strain Sprague-Dawley, females, i.p., site: any site (literature study), lesion: malignant tumor, dosed 104 weeks, study length 104 weeks) was “negative (inactive)”; the carcinogen call (rat, strain Sprague-Dawley, males, i.p., site: any site (literature study), lesion: malignant tumor, dosed 104 weeks, study length 104 weeks) was “negative (inactive)”. Besides, the TD50 by setting is: (hamster, strain Syrian Golden, females, in feed, site: liver, lesion: hepatocellular adenoma, dosed 101 weeks, study length 105 weeks) 51.1 mg/kg/day (inactive); (hamster, strain Syrian Golden, females, in feed, site: liver, lesion: several types, types named in the paper, dosed 101 weeks, study length 105 weeks) 167 mg/kg/day; (mouse, strain Swiss, females, in feed, site: any site (literature study), lesion: several types, types named in the paper, dosed 120 weeks, study length 120 weeks) 48 mg/kg/day (inactive); (mouse, strain Swiss, females, in feed, site: liver, lesion: hepatocellular carcinoma, dosed 120 weeks, study length 120 weeks) 65.2 mg/kg/day (inactive); (rat, strain BR 46, males, i.v., site: any site (literature study), lesion: benign tumor, dosed 52 weeks, study length 104 weeks) 0.409 mg/kg/day (inactive); (rat, strain BR 46, males, i.v., site: any site (literature study), lesion: malignant tumor, dosed 52 weeks, study length 104 weeks) 2.96 mg/kg/day (inactive). In addition, the TD50 (rat, strain BR 46, males, i.v., site: any site (literature study), lesion: several types, types named in the paper, dosed 52 weeks, study length 104 weeks) is 0.33 mg/kg/day (inactive).

With `Cc1csc(NNC=O)n1`, the TD50 by setting is: (rat, strain Sprague-Dawley, females, in feed, site: any site (literature study), lesion: several types, types named in the paper, dosed 46 weeks, study length 64 weeks) 14.4 mg/kg/day; (rat, strain Sprague-Dawley, females, in feed, site: mammary gland, lesion: adenofibroma, dosed 46 weeks, study length 64 weeks) 14.4 mg/kg/day.

In the case of `COc1cc(OC)c2c3c(c(=O)oc2c1)C(=O)CC3`, the carcinogen call (rat, strain Fischer, males, by gavage, site: liver, lesion: one or several types, types not named, dosed 52 weeks, study length 87 weeks) is “negative (inactive)”.

Consider `CCCCCC(N)=O`, for which the carcinogen call (mouse, strain C57BL/6, females, in feed, site: liver, lesion: hepatocellular carcinoma, dosed 52 weeks, study length 69 weeks) was “negative (inactive)”; the carcinogen call (rat, strain Fischer 344, females, in feed, site: liver, lesion: one or several types, types not named, dosed 52 weeks, study length 69 weeks) was “negative (inactive)”; the carcinogen call (rat, strain Fischer 344, males, in feed, site: liver, lesion: one or several types, types not named, dosed 52 weeks, study length 69 weeks) is “negative (inactive)”. Moreover, the TD50 (mouse, strain C57BL/6, females, in feed, site: lung, lesion: alveolar/bronchiolar adenoma, dosed 52 weeks, study length 69 weeks) was 37200 mg/kg/day (inactive); the TD50 (mouse, strain C57BL/6, females, in feed, site: stomach, lesion: squamous-cell papilloma, dosed 52 weeks, study length 69 weeks) was found to be 8900 mg/kg/day; the TD50 (mouse, strain C57BL/6, males, in feed, site: all sites, lesion: malignant lymphoma, histiocytic type, dosed 52 weeks, study length 69 weeks) is 2140 mg/kg/day; the TD50 (mouse, strain C57BL/6, males, in feed, site: all sites, lesion: several types, types named in the paper, dosed 52 weeks, study length 69 weeks) is 1950 mg/kg/day; the TD50 (mouse, strain C57BL/6, males, in feed, site: liver, lesion: hemangiosarcoma, dosed 52 weeks, study length 69 weeks) was 25300 mg/kg/day (inactive); the TD50 (mouse, strain C57BL/6, males, in feed, site: liver, lesion: malignant lymphoma, histiocytic type, dosed 52 weeks, study length 69 weeks) worked out at 25300 mg/kg/day. For the same molecule, the TD50 was 3490 mg/kg/day (inactive) (mouse, strain C57BL/6, males, in feed, site: lung, lesion: alveolar/bronchiolar adenoma, dosed 52 weeks, study length 69 weeks) and 2660 mg/kg/day (mouse, strain C57BL/6, males, in feed, site: multiple organs, lesion: malignant lymphoma, histiocytic type, dosed 52 weeks, study length 69 weeks).

For `CCN=[N+]([O-])CC`, the TD50 reads like this: (rat, strain Fischer 344, males, in drinking water, site: esophagus, lesion: several types, types named in the paper, dosed 30 weeks, study length 55 weeks) 0.0302 mg/kg/day; under setting [1], 0.0347 mg/kg/day; under setting [2], 0.0347 mg/kg/day; under setting [3], 0.0971 mg/kg/day; (rat, strain Fischer 344, males, in drinking water, site: nasal cavity, lesion: several types, types named in the paper, dosed 30 weeks, study length 55 weeks) 0.022 mg/kg/day. For the same molecule, the carcinogen call under setting [4] is “positive”.

With `CCCC1O[C@@H]2C[C@H]3[C@@H]4CCC5=CC(=O)C=C[C@]5(C)[C@H]4[C@@H](O)C[C@]3(C)[C@]2(C(=O)CO)O1` (some centres not stated), the TD50 was 0.491 mg/kg/day (rat, strain Charles River CD (Sprague-Dawley), males, in drinking water, site: liver, lesion: hepatocellular adenoma, dosed 104 weeks, study length 104 weeks); 0.822 mg/kg/day (rat, strain Charles River CD (Sprague-Dawley), males, in drinking water, site: liver, lesion: hepatocellular carcinoma, dosed 104 weeks, study length 104 weeks); 0.291 mg/kg/day (rat, strain Charles River CD (Sprague-Dawley), males, in drinking water, site: liver, lesion: several types, types named in the paper, dosed 104 weeks, study length 104 weeks).

On to `CC[N+]([O-])=NC`, for which the TD50 runs as follows: (rat, strain Fischer 344, males, in drinking water, site: colon, lesion: several types, types named in the paper, dosed 30 weeks, study length 55 weeks) 0.125 mg/kg/day; (rat, strain Fischer 344, males, in drinking water, site: ileum, lesion: one or several types, types not named, dosed 30 weeks, study length 55 weeks) 0.221 mg/kg/day; under setting [1], 0.0391 mg/kg/day; under setting [2], 0.0189 mg/kg/day; under setting [3], 0.0832 mg/kg/day. Further, the carcinogen call under setting [4] was “positive”.

For the origin of these results see PubChem BioAssay AID1745844 (Carcinogenic Potency Database (CPDB), 2022).
